Measured values published in article PMC9926489, “Chemical Optimization of Selective Pseudomonas aeruginosa LasB Elastase Inhibitors and Their Impact on LasB-Mediated Activation of IL-1β in Cellular and Animal Infection Models” (ACS Infectious Diseases, 2023).

Legend:
[1] = Mouse pharmacokinetics, plasma; assay type: in vivo; details: single 10 mg/kg IV dose; for half-life / C0 / AUC(0-t) / clearance: female, ICR (CD-1), plasma; for half-life: iv, read-out: plasma t1/2 (converted); for half-life / plasma t1/2: 10 mg/kg; for AUC(0-t): read-out: plasma AUClast; for clearance: read-out: plasma CL
Method: The PK parameters of compounds 12 and 16 were investigated in both plasma and lung epithelial lining fluid (ELF) after intravenous (IV) administration of compounds at 10 mg/kg in mice (Figure 4 and Table 5). […] Accordingly, these levels of lung penetration (9.5 and 5.2%, respectively) warranted the evaluation of the compounds in an animal model of lung infection using IV dosing.
Unrestrained, nonanesthetized mice (Female ICR (CD-1); Age 5–6 weeks; Size 22 ± 2 g; specific pathogen-free (SPF)) were injected IV with test article formulations via the tail vein. Animals were sacrificed by cardiac puncture under CO2 euthanasia at 0.08, 0.25, 1, 2, 4, 8, and 24 h post dosing. Blood was drawn into tubes coated with EDTA-K3, mixed gently and plasma was then harvested and kept frozen at −70 °C until further processing. To collect […] (BALF), 0.5 mL of PBS was administered once through a tracheal cannula after which about 0.2 to 0.3 mL of BALF was obtained. The BALF was kept on ice and centrifuged within 1 h of collection and the supernatant was harvested and kept frozen at −70 °C. Plasma and BALF samples were analyzed by LC-MS/MS (AB SCIEX API 3000 mass spectrometer). The apparent ELF volume of each BALF sample was estimated using urea as an endogenous marker of the ELF dilution. The urea concentrations in BALF and plasma samples were determined with the QuantiChrom Urea Assay Kit (DIUR-100) (BioAssay Systems) following the manufacturer’s protocol. For each BALF sample, the drug concentration in ELF was calculated as follows: drug concentrationELF = drug concentrationBALF × (urea concentrationplasma/urea concentrationBALF). The PK parameters of each compound after IV dosing (t1/2, C0, AUClast, and CL) were obtained from the noncompartmental analysis (NCA) of the plasma data using WinNonlin.

P. aeruginosa PAO1 = experiment: Mouse P. aeruginosa lung infection model, bacterial numbers (CFUs) in lung homogenates; assay type: in vivo; details: C57Bl/6 mice, 24 h
Method: To investigate if compounds 12 and 16 were able to engage the LasB target in vivo, in the context of a P. aeruginosa lung infection, and to determine the consequences of that inhibition, immunocompetent C57Bl/6 mice were infected intranasally with P. aeruginosa PAO1 and treated with two doses of inhibitors, 10 and 30 mg/kg, administered IV at 1 and 4 h post-infection (Figure 5A). A control group of PAO1-infected animals treated with vehicle and a group of animals infected with the isogenic ΔlasB strain were included in the study. Mice were euthanized 24 h post-infection and their lung homogenates assayed for activated mature IL-1β (using the IL-1 reporter assay) and bacterial numbers (by CFU enumeration).
Infection experiments were approved by the Institutional Animal Care and Use Committee of Emory University. To prepare the bacterial inoculum, P. aeruginosa PAO1 (or its ΔlasB derivative) was grown in Luria broth with shaking at physiologic (37 °C) temperature for 18 h to maximally express LasB (at late log phase). Bacteria were then harvested, washed, and diluted in sterile phosphate-buffered saline (PBS) for delivery of 10^9 colony-forming units (CFUs) in 40 μL. For infection, female C57Bl/6 mice (five/group) were sedated using isofluorane and the bacterial suspension was slowly administered via micropipette between the nostrils and the animals were allowed to aspirate the inoculum via the normal breathing process. Compounds 12 and 16 were administered in PBS via injection (100 μL volume) to achieve doses of 10 and 30 mg/kg. The mice were euthanized 24 h post-infection and the lungs were excised. Active IL-1β was quantified by adding 100 μL of cell-free homogenate to IL-1β responsive HEK IL-1R-lux reporter cells. Activity was assayed by luminescence measured with D-luciferin substrate (Steady-Luc, Biotium) on a multimode reader (PerkinElmer) and expressed as relative luminescence units (RU). CFU was enumerated by dilution plating on Luria agar. Statistics were calculated by ANOVA with a Dunnett post-test.

[2] = Plasma protein binding by equilibrium dialysis; assay type: in vitro ADME; details: mouse plasma, 10 μM compound; read-out: PPB (mouse) % bound (converted)
Method: Mouse plasma protein binding (PPB) was determined by equilibrium dialysis with 10 μM compound over 4 h at 37 °C. Compound recoveries were determined by HPLC-MS/MS.

[3] = molecular target: T1, secreted LasB in P. aeruginosa PAO1-infected THP-1 macrophages (Pseudomonas aeruginosa, UniProt P14756); experiment: LasB activity (Sub115 hydrolysis) in supernatants of P. aeruginosa-infected THP-1 macrophages; assay type: cell-based; details: PAO1-infected THP-1 macrophages, 2 h, inhibitor at 4 μM
T1 construct: The mature LasB protein is a 33 kDa metalloprotease, which is secreted from P. aeruginosa; endogenous in cells; host or cells: P. aeruginosa PAO1 infecting human THP-1 macrophages (MOI 10:1); supernatant after 2 h
T1 sequence (P14756 198-498): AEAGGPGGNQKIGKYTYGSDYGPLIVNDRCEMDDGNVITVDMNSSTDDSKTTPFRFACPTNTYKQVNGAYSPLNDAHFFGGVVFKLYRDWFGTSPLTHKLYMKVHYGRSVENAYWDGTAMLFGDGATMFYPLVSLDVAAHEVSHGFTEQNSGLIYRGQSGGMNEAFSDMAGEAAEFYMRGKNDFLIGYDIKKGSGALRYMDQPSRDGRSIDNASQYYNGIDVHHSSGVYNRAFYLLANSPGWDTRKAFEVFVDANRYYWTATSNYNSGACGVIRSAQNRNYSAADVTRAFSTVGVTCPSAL
Method: Further to showing in vitro inhibition of LasB-mediated pro-IL-1β proteolysis, experiments were performed to determine the effect of compounds 12 and 16 on IL-1β activation and functionality in human macrophage cell cultures infected with P. aeruginosa PAO1, or an isogenic lasB deletion mutant thereof (ΔlasB). In these experiments, the levels of LasB activity in culture supernatants were measured via hydrolysis of the Sub115 fluorescent peptide, while the effect of LasB activity on IL-1β activation (functionality) was measured using a luciferase reporter cell line sensitive to IL-1β induction (Figure 3).
Human THP-1 macrophages were cultured by conventional methods then, pre-infection, culture media were replaced by RPMI lacking phenol red and antibiotics. Compounds VX-765 (caspase-1 inhibitor, developed by Vertex) and/or LasB inhibitors were added, immediately followed by inoculation with P. aeruginosa PAO1 or an isogenic lasB deletion mutant (ΔlasB), previously grown in Luria broth to late exponential phase (OD600 = 1.2) then washed and diluted in PBS, at a multiplicity of infection (MOI) of 10 to 1. After 2 h post-infection, 50 μL aliquots of supernatant were removed and used to quantitate both LasB activity and IL-1β functionality. To determine LasB activity, 50 μL of supernatant was added to Sub115 IL-1β peptide and hydrolysis of Sub115 was monitored spectrophotometrically with excitation at 355 nm and emission at 450 nm, as described above. Results were expressed as relative fluorescence units (RFU).
In the first variation, experimental infections were performed with P. aeruginosa PAO1 and ΔlasB bacteria incubated with varying quantities of inhibitor at final concentrations ranging from 0.5 to 8 μM. In the second, cells were treated and infected in the same manner and also treated with 5 μM VX-765 to provide a control for IL-1β activation by the inflammasome pathway.

[4] = 30 mg/kg IV at 1 and 4 h post-infection

In the case of `COc1cc2sc(CNC(=O)C3(CC(=O)O)Cc4ccccc4C3)nc2cc1OCCC[N+](C)(C)C` [Compound 12], the half-life [1] is reported as ~6 h, the C0 [1] is reported as 92.2 µg/mL and the AUC(0-t) [1] is reported as 610 µg·h/mL. For the same molecule, the clearance [1] was 0.3 mL/min/kg, the “plasma t1/2” value [1] was 6.2 h and the “log reduction in bacterial numbers (CFUs) in lung” value (“log reduction in bacterial numbers” below) (P. aeruginosa PAO1; 10 mg/kg IV at 1 and 4 h post-infection) was 0.48 log. The “log reduction in bacterial numbers” value (P. aeruginosa PAO1; [4]) was 0.69 log, the fraction unbound at 4 h, 10 μM [2] was 0.24 and the “LasB activity in culture supernatant (Sub115 hydrolysis)” value [3] was “complete abolition of activity”.

For `COc1cc2sc(CNC(=O)C3(CC(=O)O)Cc4cc(F)c(F)cc4C3)nc2cc1OCCC[N+](C)(CCO)CCO` [Compound 16], the half-life [1] was ~6 h, the C0 [1] was 176 µg/mL and the AUC(0-t) [1] was 517 µg·h/mL. For the same molecule, the clearance [1] was 0.3 mL/min/kg, the “plasma t1/2” value [1] was 6.5 h and the “log reduction in bacterial numbers” value (P. aeruginosa PAO1; [4]) was 0.47 log. For the same molecule, the fraction unbound at 4 h, 10 μM [2] was 0.18 and the “LasB activity in culture supernatant (Sub115 hydrolysis)” value [3] was “complete abolition of activity”.
